Assay results published in patent US20220289753A1, “SHP2 INHIBITORS” (IRBM S.P.A., priority 2019, published 2022).
pIC50: −log10 of the molar value.

Legend:
[1] = system: ERK phosphorylation in KYSE-520 cells; assay: Phospho-ERK cellular assay (Advanced phospho-ERK1/2 (Thr202/Tyr204) TR-FRET kit); assay type: cell-based; details: Homo sapiens, KYSE-520, 2 h, KYSE-520 cells, 2 h at 37° C., TR-FRET; read-out: pERK IC50
Method in brief: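 KYSE-520 cells were treated 2 h at 37° C with serially diluted compounds, then lysed. Phospho-ERK1/2 (Thr202/Tyr204) was detected by TR-FRET after overnight antibody incubation at room temperature. IC50 came from a four-parameter logistic fit; lower signal reflects greater SHP2 inhibition.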

[2] = target: T1, SHP-2 enzyme (Met1-Leu525) (Homo sapiens, UniProt Q06124); assay: SHP2 inhibition enzymatic assay (DiFMUP substrate, IRS1 peptide activation); assay type: biochemical; details: SHP2 wt; activated by 500 nM IRS1 peptide; 75 μM DiFMUP substrate
T1 construct: synthetized by Origene, Met1-Leu525, cat #TP750155; purchased Origene TP750155
T1 sequence (Q06124 1-525): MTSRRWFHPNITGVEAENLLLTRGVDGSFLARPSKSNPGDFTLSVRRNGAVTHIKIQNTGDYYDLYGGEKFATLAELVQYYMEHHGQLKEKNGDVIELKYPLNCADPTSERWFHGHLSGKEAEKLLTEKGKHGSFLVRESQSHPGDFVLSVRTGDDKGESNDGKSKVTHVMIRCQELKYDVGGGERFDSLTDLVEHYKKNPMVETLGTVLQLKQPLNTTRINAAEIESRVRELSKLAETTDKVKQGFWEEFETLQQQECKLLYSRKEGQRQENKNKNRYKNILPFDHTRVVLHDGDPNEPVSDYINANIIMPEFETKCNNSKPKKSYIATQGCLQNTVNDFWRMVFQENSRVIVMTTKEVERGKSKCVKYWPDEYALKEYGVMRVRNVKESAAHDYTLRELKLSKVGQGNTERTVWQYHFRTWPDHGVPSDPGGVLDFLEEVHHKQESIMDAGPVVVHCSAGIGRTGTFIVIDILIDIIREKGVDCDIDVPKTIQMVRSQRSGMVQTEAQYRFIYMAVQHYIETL
Method in brief: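 SHP-2 (Met1-Leu525, 0.5 nM final) preincubated 30 min with compounds and IRS1 activating peptide in HEPES pH 7.2 buffer with NaCl, KCl, EDTA, tween-20, 5 mM DTT. DiFMUP then added for 30 min at room temperature and fluorescence read. IC50 from four-parameter logistic fit of % inhibition.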

Compound | pIC50 [1] | pIC50 [2]
CN1C(=O)C(F)(F)c2c(Sc3cnc4[nH]c(N5CCC6(CC5)Cc5ccccc5[C@H]6N)nc4n3)cccc21 [Example 134, (S)-4-((2-(1-amino-1,3-dihydrospiro[indene-2,4′-piperidin]-1′-yl)-1H-imidazo[4,5-b]pyrazin-5-yl)thio)-3,3-difluoro-1-methylindolin-2-one] | > 6.00 | > 6.30
N[C@@H]1c2ccccc2CC12CCN(c1nc3nc(Sc4cccc5nonc45)cnc3[nH]1)CC2 [Example 213, (S)-1′-(5-(benzo[c][1,2,5]oxadiazol-4-ylthio)-1H-imidazo[4,5-b]pyrazin-2-yl)-1,3-dihydrospiro[indene-2,4′-piperidin]-1-amine] | > 6.00 | > 6.30
N[C@@H]1c2ccccc2CC12CCN(c1nc3nc(Sc4cccnc4C(F)(F)F)cnc3[nH]1)CC2 [Example 107, (S)-1′-(5-((2-(trifluoromethyl)pyridin-3-yl)thio)-1H-imidazo[4,5-b]pyrazin-2-yl)-1,3-dihydrospiro[indene-2,4′-piperidin]-1-amine] | > 6.00 | > 6.30
N[C@@H]1c2cccnc2CC12CCN(c1nc3ncc(Sc4ccc5c(c4Cl)NC(=O)CO5)nc3[nH]1)CC2 [Example 169, (S)-6-((2-(5-amino-5,7-dihydrospiro[cyclopenta[b]pyridine-6,4′-piperidin]-1′-yl)-1H-imidazo[4,5-b]pyrazin-6-yl)thio)-5-chloro-2H-benzo[b][1,4]oxazin-3(4H)-one] | > 6.00 | > 6.30
N[C@@H]1c2ccccc2CC12CCN(c1nc3ncc(Sc4cccc5[nH]ccc45)nc3[nH]1)CC2 [Example 198, (S)-1′-(6-((1H-indol-4-yl)thio)-1H-imidazo[4,5-b]pyrazin-2-yl)-1,3-dihydrospiro[indene-2,4′-piperidin]-1-amine] | > 6.00 | > 6.30
CC1(N)CCN(c2nc3nc(Sc4ccnc5ccccc45)cnc3[nH]2)CC1 [Example 61, 4-methyl-1-(5-(quinolin-4-ylthio)-1H-imidazo[4,5-b]pyrazin-2-yl)piperidin-4-amine] | 5.30 to 6.00 | > 6.30
COc1cnccc1Sc1cnc2nc(N3CCC4(CC3)Cc3ccc(F)cc3[C@H]4N)[nH]c2n1 [Example 182] | > 6.00 | > 6.30
C[C@@H]1OCC2(CCN(c3nc4nc(Sc5cccnc5C(F)(F)F)cnc4[nH]3)CC2)[C@@H]1N [Example 96, (3S,4S)-3-methyl-8-(5-((2-(trifluoromethyl)pyridin-3-yl)thio)-1H-imidazo[4,5-b]pyrazin-2-yl)-2-oxa-8-azaspiro[4.5]decan-4-amine] | 5.30 to 6.00 | > 6.30
COc1cc2c(cc1F)[C@@H](N)C1(CCN(c3nc4ncc(Sc5ccncc5Cl)nc4[nH]3)CC1)C2 [Example 186, (S)-1′-(6-((3-chloropyridin-4-yl)thio)-1H-imidazo[4,5-b]pyrazin-2-yl)-6-fluoro-5-methoxy-1,3-dihydrospiro[indene-2,4′-piperidin]-1-amine] | > 6.00 | > 6.30
N[C@@H]1CCCC12CCN(c1nc3ncc(Sc4cccnc4C(F)(F)F)nc3[nH]1)CC2 [Example 2, (R)-8-(6-((2-(trifluoromethyl)pyridin-3-yl)thio)-1H-imidazo[4,5-b]pyrazin-2-yl)-8-azaspiro[4.5]decan-1-amine] | 5.30 to 6.00 | > 6.30
CC1(N)CCN(c2nc3nc(Sc4cccc5cccnc45)cnc3[nH]2)CC1 [Example 88, 4-methyl-1-(5-(quinolin-8-ylthio)-1H-imidazo[4,5-b]pyrazin-2-yl)piperidin-4-amine] | < 5.30 | > 6.30
CC1(N)CCN(c2nc3ncc(Sc4cccc(Cl)c4Cl)nc3[nH]2)CC1 [Example 22, 1-(5-((2,3-dichlorophenyl)thio)-1H-imidazo[4,5-b]pyrazin-2-yl)-4-methylpiperidin-4-amine] | 5.30 to 6.00 | > 6.30
Cc1c(Sc2cnc3nc(N4CCC5(CC4)Cc4ccccc4[C@H]5N)[nH]c3n2)ccnc1N [Example 204, (S)-1′-(6-((2-amino-3-methylpyridin-4-yl)thio)-1H-imidazo[4,5-b]pyrazin-2-yl)-1,3-dihydrospiro[indene-2,4′-piperidin]-1-amine] | > 6.00 | > 6.30
N[C@@H]1c2ccccc2CC12CCN(c1nc3nc(Sc4cccc5c4OC(F)(F)O5)cnc3[nH]1)CC2 [Example 136, (S)-1′-(5-((2,2-difluorobenzo[d][1,3]dioxol-4-yl)thio)-1H-imidazo[4,5-b]pyrazin-2-yl)-1,3-dihydrospiro[indene-2,4′-piperidin]-1-amine] | > 6.00 | > 6.30

Further lines, results first:

pIC50 [1] | pIC50 [2] | Compound
> 6.00 | > 6.30 | N[C@@H]1c2ccccc2CC12CCN(c1nc3nc(Sc4ccncc4OC(F)(F)F)cnc3[nH]1)CC2 [Example 226, (S)-1′-(5-((3-(trifluoromethoxy)pyridin-4-yl)thio)-1H-imidazo[4,5-b]pyrazin-2-yl)-1,3-dihydrospiro[indene-2,4′-piperidin]-1-amine]
5.30 to 6.00 | > 6.30 | N[C@@H]1c2ccccc2CC12CCN(c1nc3nc(Sc4cc(Cl)nn5ccnc45)cnc3[nH]1)CC2 [Example 251, (S)-1′-(5-((6-chloroimidazo[1,2-b]pyridazin-8-yl)thio)-1H-imidazo[4,5-b]pyrazin-2-yl)-1,3-dihydrospiro[indene-2,4′-piperidin]-1-amine]
< 5.30 | > 6.30 | CNC(=O)c1ncccc1Sc1cnc2[nH]c(N3CCC4(CC3)Cc3ccccc3[C@H]4N)nc2n1 [Example 224, (S)-3-((2-(1-amino-1,3-dihydrospiro[indene-2,4′-piperidin]-1′-yl)-1H-imidazo[4,5-b]pyrazin-5-yl)thio)-N-methylpicolinamide]
> 6.00 | > 6.30 | N[C@@H]1c2cccnc2CC12CCN(c1nc3nc(Sc4ccnc(Cl)c4C(F)(F)F)cnc3[nH]1)CC2 [Example 262, (S)-1′-(5-((2-chloro-3-(trifluoromethyl)pyridin-4-yl)thio)-1H-imidazo[4,5-b]pyrazin-2-yl)-5,7-dihydrospiro[cyclopenta[b]pyridine-6,4′-piperidin]-5-amine]
> 6.00 | > 6.30 | CNc1nccc(Sc2cnc3[nH]c(N4CCC5(CC4)Cc4ncccc4[C@H]5N)nc3n2)c1C(F)(F)F [Example 264, (5S)-1′-[5-[2-(methylamino)-3-(trifluoromethyl)pyridin-4-yl]sulfanyl-1H-imidazo[4,5-b]pyrazin-2-yl]spiro[5,7-dihydrocyclopenta[b]pyridine-6,4′-piperidine]-5-amine]
< 5.30 | > 6.30 | COc1ccncc1Sc1cnc2[nH]c(N3CCC4(CC3)Cc3ccccc3[C@H]4N)nc2n1 [Example 237, (S)-1′-(5-((4-methoxypyridin-3-yl)thio)-1H-imidazo[4,5-b]pyrazin-2-yl)-1,3-dihydrospiro[indene-2,4′-piperidin]-1-amine]
> 6.00 | > 6.30 | N[C@@H]1c2ccccc2CC12CCN(c1nc3nc(Sc4cccc5[nH]c(=O)cnc45)cnc3[nH]1)CC2 [Example 216, (S)-5-((2-(1-amino-1,3-dihydrospiro[indene-2,4′-piperidin]-1′-yl)-1H-imidazo[4,5-b]pyrazin-5-yl)thio)quinoxalin-2(1H)-one]
> 6.00 | > 6.30 | Nc1nccc(Sc2cnc3[nH]c(N4CCC5(CC4)Cc4ccc(Br)cc4[C@H]5N)nc3n2)c1Cl [Example 219, (S)-1′-(5-((2-amino-3-chloropyridin-4-yl)thio)-1H-imidazo[4,5-b]pyrazin-2-yl)-6-bromo-1,3-dihydrospiro[indene-2,4′-piperidin]-1-amine]
> 6.00 | > 6.30 | N[C@@H]1c2ccccc2CC12CCN(c1nc3nc(Sc4ccnnc4Cl)cnc3[nH]1)CC2 [Example 247, (S)-1′-(5-((3-chloropyridazin-4-yl)thio)-1H-imidazo[4,5-b]pyrazin-2-yl)-1,3-dihydrospiro[indene-2,4′-piperidin]-1-amine]
5.30 to 6.00 | > 6.30 | N#Cc1c[nH]c2nccc(Sc3cnc4[nH]c(N5CCC6(CC5)Cc5ccccc5[C@H]6N)nc4n3)c12 [Example 240, (S)-4-((2-(1-amino-1,3-dihydrospiro[indene-2,4′-piperidin]-1′-yl)-1H-imidazo[4,5-b]pyrazin-5-yl)thio)-1H-pyrrolo[2,3-b]pyridine-3-carbonitrile]
> 6.00 | > 6.30 | Cn1cc2c(Sc3cnc4[nH]c(N5CCC6(CC5)Cc5ccccc5[C@H]6N)nc4n3)ccnc2n1 [Example 255, (S)-1′-(5-((2-methyl-2H-pyrazolo[3,4-b]pyridin-4-yl)thio)-1H-imidazo[4,5-b]pyrazin-2-yl)-1,3-dihydrospiro[indene-2,4′-piperidin]-1-amine]
